From US10865451B2, “Non-invasive blood based monitoring of genomic alterations in cancer” (Dana-Farber Cancer Institute, Inc., priority 2013, dated 2020)

Test system: advanced EGFR-mutant NSCLC
Assay: Serial ddPCR plasma genotyping of patients on first-line erlotinib (NCT00997334) until RECIST progression
Assay type: in vivo, human
Method: For each eligible patient, plasma was collected during routine care either prior to first-line therapy or at a subsequent time when the cancer was progressing on therapy. Additional follow-up specimens were collected if possible during routine care. Each specimen was collected into one 10 mL EDTA-containing vacutainer and was spun into plasma within 4 hours of collection. Plasma cfDNA was extracted and frozen at −80 C until genotyping. Total DNA concentration in extracted plasma was measured via a modified quantitative PCR assay for human long interspersed element 1 (LINE-1).
Each droplet is individually assigned a positive or negative value based on the fluorescent intensity. The amount of positives and negatives are read by a flow cytometer and are used to calculate the concentration of an allele. To minimize bias and to ensure the integrity of results, the laboratory was blinded to the tumor genotype when testing plasma specimens, but results were selectively unblinded for data analysis. Each plasma sample was analyzed in triplicate with an increasing quantity of input DNA (e.g. 1 μL, 2 μL, and 4 μL). Results were normalized to a mean concentration of mutant alleles per μL DNA input, and reported as copies of mutant allele per 100 μL of DNA, the approximate DNA quantity isolated from one blood specimen.

## C#Cc1cccc(Nc2ncnc3cc(OCCOC)c(OCCOC)cc23)c1 [erlotinib]
9 analysed patients with EGFR exon 19 deletion and detectable pretreatment plasma genotype
  patients exhibiting a plasma response (drop of plasma level of EGFR sensitizing mutation): 9 patients
Of 9 analysed patients
  patients demonstrating a complete plasma response: 8 patients
Of 9 analysed patients, at RECIST progression
  patients with plasma levels of mutant EGFR again detected at objective progression (plasma T790M also identified): 6 patients
